Specific activity and Km data for 2 molecules are collected here from publication PMC8364350 (Nature ecology & evolution, 2020).

The target of one series is T1, DrCSAD (Danio rerio, UniProt A0A8M1N2X8).
T1 sequence (A0A8M1N2X8 1-500): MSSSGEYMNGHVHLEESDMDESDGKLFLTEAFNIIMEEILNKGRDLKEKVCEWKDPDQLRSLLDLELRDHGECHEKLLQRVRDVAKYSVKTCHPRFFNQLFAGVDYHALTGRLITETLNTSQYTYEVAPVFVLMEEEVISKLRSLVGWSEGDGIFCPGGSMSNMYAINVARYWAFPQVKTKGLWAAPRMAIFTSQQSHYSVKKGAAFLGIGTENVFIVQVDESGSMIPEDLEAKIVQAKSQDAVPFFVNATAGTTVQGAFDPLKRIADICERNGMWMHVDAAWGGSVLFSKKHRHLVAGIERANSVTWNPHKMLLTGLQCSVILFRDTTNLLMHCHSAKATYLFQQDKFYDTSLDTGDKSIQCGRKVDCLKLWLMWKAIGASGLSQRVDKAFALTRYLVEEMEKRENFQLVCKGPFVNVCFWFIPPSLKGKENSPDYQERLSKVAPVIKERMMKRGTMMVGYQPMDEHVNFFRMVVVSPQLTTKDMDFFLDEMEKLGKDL
The series is described as follows: 1H NMR product quantification, specific activity. The format is biochemical. The conditions noted are these: 5 min reaction stopped with 1 M HCl, pH 7.0, 25 C; preferred substrate.

A further series has as its target T2, HsCSAD (Homo sapiens, UniProt Q9Y600).
T2 sequence (Q9Y600 1-493): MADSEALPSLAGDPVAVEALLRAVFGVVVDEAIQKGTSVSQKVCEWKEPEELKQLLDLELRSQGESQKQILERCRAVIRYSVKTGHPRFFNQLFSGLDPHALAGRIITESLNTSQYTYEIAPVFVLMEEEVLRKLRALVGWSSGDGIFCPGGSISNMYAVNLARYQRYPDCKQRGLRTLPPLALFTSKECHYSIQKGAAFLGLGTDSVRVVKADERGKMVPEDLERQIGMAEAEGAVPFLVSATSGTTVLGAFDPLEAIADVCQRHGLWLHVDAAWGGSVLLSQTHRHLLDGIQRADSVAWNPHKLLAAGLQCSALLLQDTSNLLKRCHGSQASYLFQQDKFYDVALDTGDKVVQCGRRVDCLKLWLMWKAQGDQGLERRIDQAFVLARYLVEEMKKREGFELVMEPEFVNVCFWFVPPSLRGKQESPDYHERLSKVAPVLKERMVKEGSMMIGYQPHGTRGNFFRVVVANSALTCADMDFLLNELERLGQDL
As to the kind of experiment: 1H NMR product quantification, specific activity. It counts as biochemical. The conditions noted are these: 5 min reaction stopped with 1 M HCl, pH 7.0, 25 C; preferred substrate.

Substrate in series [1]: N[C@@H](CS(=O)(=O)O)C(=O)O
As to the kind of experiment: time-resolved 1H NMR, integrated Michaelis-Menten fit of progress curve. The format is biochemical, Gallus gallus. Conditions: 50 mM NaH2PO4 pH 7.0, 25 C, H2O:D2O 9:1, example time course.

Turning to `N[C@@H](CS(=O)O)C(=O)O` [CSA, cysteine sulfinic acid], the results for the specific activity entry at DrCSAD and on HsCSAD were “observed the same preference for CSA in a CSAD ortholog of a basal vertebrate” and “We confirmed the opposite preference for the CSA substrate in human CSAD”, respectively.

B1: GgCAD (Gallus gallus) (protein)
chain: MAEQSDLERPAVDGAAGEEFLRAAFQVLLEEAVRKGTDVAQKVCEWKEPHELRELLDLELRSHGEPAGRLLERCRDIIRYSVKTCHPRFFNQLFSGLDHHALAGRLLTETLNTSQYTYEIAPVFVLMEEVVLAKLRELVGWNSGDGIFCPGGSISNMYAMNVARFQRFPESRQQGSRALPRLVLFASEECHYSIQKGAAFLGIGTDNVVLVRADERGKMIPEELEKEIERVKSEGAVPFFVSATSGTTVLGAFDPLGPVADVCQRHGLWLHVDAAWGGSALLSRKHRQLLAGIERADSVAWNPHKMLTVGLQCSAFLLRDDSGLLQRCHGAGAAYLFQPDKFYDVMFDTGDKTVQCGRRVDCLKLWLLWKAVGSEGLEQRVDRAFACTSYLAAEMKRRDGFQLVLEPEFINLCFWFVPPSLRGQQGCTDFGPRLGKVAPAIKERMMKEGSMMVGYQPHGTRPNFFRQIVTSPAVTRADLDFFLDEIERLGCDL
For the molecule B1, in series [1], the Km is given as 6.95 ± 3.23 mM.
